One assay relates to barnyardgrass. Kind of assay: Test A pre-/postemergence herbicide test. The assay is classed as in vivo, Echinochloa crus-galli. An outline of the steps:
(§1)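 Sandy loam soil given preemergence directed spray; plants at 2 to 10 cm, one- to two-leaf stage, sprayed to runoff postemergence, compounds in non-phytotoxic solvent with surfactant. Injury rated visually versus untreated controls after about ten greenhouse days, 0 (no effect) to 100 (complete control); dash means not tested.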

The test system of a further assay is large crabgrass. Kind of assay: Test A pre-/postemergence herbicide test. The class given is in vivo, Digitaria sanguinalis. In a few lines: as §1
For the next assay, the system named is redroot pigweed. The assay can be described thus: Test A pre-/postemergence herbicide test. The assay is classed as in vivo, Amaranthus retroflexus. An outline of the steps:
as §1

Assay [1] concerns smallflower umbrella sedge. Kind of assay: Test C flooded paddy test. The class given is in vivo, Cyperus difformis. The conditions noted are these: for Plant response rating, Sedge, Umbrella: 500 g ai/ha, visual rating after 12 to 14 days.
Setting [2] is: Postemergence, 500 g ai/ha, 0 to 100 scale, 0 no effect, 100 complete control.
Where [3] appears, read: Postemergence, 2000 g ai/ha, 0 to 100 scale, 0 no effect, 100 complete control.
Where [4] appears, read: Preemergence, 2000 g ai/ha, visual rating, 0 to 100 scale (0 no effect, 100 complete control).
[5] abbreviates: preemergence, 500 g ai/ha, visual injury, 0 to 100 scale (0 no effect, 100 complete control).
[6] abbreviates: 125 g ai/ha, scale 0 to 100 (0 no effect, 100 complete control).
Where [7] appears, read: 250 g ai/ha, scale of 0 to 100, 0 is no effect, 100 is complete control.
Where [8] appears, read: scale 0 to 100 (0 no effect, 100 complete control).

Take `CCn1nc(C(C)(C)C)cc1C(=O)Nc1cncc(C(=O)N2CC=CC2)n1` [Compound 290]: the “Barnyardgrass plant response rating” value is 55 with barnyardgrass (setting [2]), 90 with barnyardgrass (setting [4]) and 40 in the assay on barnyardgrass (setting [5]). Moreover, in the assay with barnyardgrass (setting [3]), the “Plant response rating, Barnyardgrass” value was 70. The “Crabgrass, Large plant response rating” value in the assay with large crabgrass (setting [2]) is given as 10; in the assay with large crabgrass (setting [4]), 25; in the assay on large crabgrass (setting [5]) it was 5. For the same molecule, in the assay with large crabgrass (setting [3]), the “Plant response rating, Crabgrass, Large” value came out at 10. The “Pigweed plant response rating” value in the assay with redroot pigweed (setting [2]) worked out at 30; with redroot pigweed (setting [4]), 95; in the assay on redroot pigweed (setting [5]), 10. Further, in the assay with redroot pigweed (setting [3]), the “Plant response rating, Pigweed” value turned out to be 60. Further, the “Sedge, Umbrella plant response rating” value in assay [1] (62 g ai/ha, scale 0 to 100) is 0; in assay [1] (setting [6]) it was 25; in assay [1] (setting [7]), 65. Further, in assay [1] (setting [8]), the “Plant response rating, Sedge, Umbrella” value is listed as 70.

As for `CCc1nc(C(C)(C)C)sc1C(=O)Nc1cccc(C(=O)NCCF)c1` [Compound 209], the “Barnyardgrass plant response rating” value in the assay with barnyardgrass (setting [2]) is 30; in the assay with barnyardgrass (setting [4]), 80; with barnyardgrass (setting [5]), 60. Moreover, the “Plant response rating, Barnyardgrass” value in the assay with barnyardgrass (setting [3]) was 70. Also, the “Crabgrass, Large plant response rating” value amounted to 20 with large crabgrass (setting [2]), 95 in the assay with large crabgrass (setting [4]) and 75 in the assay on large crabgrass (setting [5]). Moreover, the “Plant response rating, Crabgrass, Large” value with large crabgrass (setting [3]) worked out at 40. The “Pigweed plant response rating” value is on record as 40 in the assay with redroot pigweed (setting [2]), 100 in the assay with redroot pigweed (setting [4]) and 75 in the assay with redroot pigweed (setting [5]). Further, the “Plant response rating, Pigweed” value with redroot pigweed (setting [3]) came to 50. Moreover, the “Sedge, Umbrella plant response rating” value in assay [1] (62 g ai/ha, scale 0 to 100 (0 no effect, 100 complete control)) was 55; in assay [1] (setting [6]), 55; in assay [1] (setting [7]), 65. Also, in assay [1] (setting [8]), the “Plant response rating, Sedge, Umbrella” value came to 80.

`CCn1nc(C(C)(C)C)cc1C(=O)Nc1nc(C(=O)N2CC=CC2)ccc1F` [Compound 281]: the “Barnyardgrass plant response rating” value in the assay with barnyardgrass (setting [2]) is recorded as 30; in the assay with barnyardgrass (setting [4]), 75; in the assay with barnyardgrass (setting [5]) it was 60. Also, the “Plant response rating, Barnyardgrass” value in the assay on barnyardgrass (setting [3]) stood at 65. Further, the “Crabgrass, Large plant response rating” value in the assay with large crabgrass (setting [2]) turned out to be 5; in the assay on large crabgrass (setting [4]), 65; with large crabgrass (setting [5]), 20. Besides, the “Plant response rating, Crabgrass, Large” value in the assay with large crabgrass (setting [3]) is listed as 10. In addition, the “Pigweed plant response rating” value in the assay on redroot pigweed (setting [2]) stood at 70; in the assay with redroot pigweed (setting [4]), 95; in the assay on redroot pigweed (setting [5]), 90. The “Plant response rating, Pigweed” value in the assay with redroot pigweed (setting [3]) was 70. The “Sedge, Umbrella plant response rating” value in assay [1] (62 g ai/ha, scale 0 to 100) stood at 15; in assay [1] (setting [6]), 20; in assay [1] (setting [7]) it was 40. Also, in assay [1] (setting [8]), the “Plant response rating, Sedge, Umbrella” value worked out at 90.

Consider `C#CCNC(=O)c1cc(NC(=O)c2cc(C(C)(C)C)nn2CC)ccn1` [Compound 283], for which the “Barnyardgrass plant response rating” value worked out at 10 with barnyardgrass (setting [2]), 30 in the assay with barnyardgrass (setting [4]) and 0 in the assay on barnyardgrass (setting [5]). In the assay with barnyardgrass (setting [3]), the “Plant response rating, Barnyardgrass” value was found to be 35. In addition, the “Crabgrass, Large plant response rating” value is 10 in the assay on large crabgrass (setting [2]), 90 with large crabgrass (setting [4]) and 15 with large crabgrass (setting [5]). Moreover, the “Plant response rating, Crabgrass, Large” value with large crabgrass (setting [3]) was determined as 10. Moreover, the “Pigweed plant response rating” value in the assay with redroot pigweed (setting [2]) worked out at 80; in the assay with redroot pigweed (setting [4]), 90; with redroot pigweed (setting [5]) it was 60. Also, in the assay on redroot pigweed (setting [3]), the “Plant response rating, Pigweed” value is 100. Further, the “Sedge, Umbrella plant response rating” value was found to be 0 in assay [1] (62 g ai/ha, scale 0 to 100); 0 in assay [1] (setting [6]); 0 in assay [1] (setting [7]). Moreover, the “Plant response rating, Sedge, Umbrella” value in assay [1] (setting [8]) was 0.

(Values after patent US20060069132A1, “Azolecarboxamide herbicides” (priority 2004, published 2006).)
